Laboratory results published in patent US20220031723A1, “POWDERED FOOD COMPOSITION COMPRISING ERIOCITRIN” (EUROMED, S.A., priority 2020, published 2022).

Columns and labels:
[1] = Occurrence of plasma and urine metabolites in volunteers after consuming lemon or orange extract; format: in vivo, human
From the text: Through a targeted metabolomic strategy, a total of 17 metabolites were tentatively identified (Table 3). No hesperidin or eriocitrin-derived metabolites were detected in any volunteer at baseline. All the identified metabolites were detected at least in one volunteer, independently of the extract consumed, except for the metabolites M9 (eriodictyol sulfoglucuronide) and M11 (hesperetin sulfoglucuronide), which only were detected after consuming lemon and orange extract, respectively (Table 3). These representative EICs illustrate the metabolites identified in urine (F3 fraction) after consuming lemon (FIG. 3A) and orange (FIG. 3B) extracts, and plasma after consuming lemon (FIG. 3C) and orange (FIG. 3D) extracts. From the 17 metabolites, 16 were detected after consuming lemon extract (except M11), and 15 after consuming orange extract (except M9 and M10 in urine, and M9 and M12 in plasma) (Table 3).

[2] = Urinary excretion of quantified metabolites in collected fractions after extract intake; format: in vivo, human; conditions: mean ± SD; for Metabolite quantified in urine fraction F1: fraction 0 to 4 h; for Metabolite quantified in urine fraction F2: fraction 4 to 8 h; for Metabolite quantified in urine fraction F3: fraction 8 to 10 h; for Metabolite quantified in urine fraction F4: fraction collected at 24 h (10-24 h); for Metabolite quantified in urine, Total F (24 h): sum of fractions F1-F4
Protocol: Table 4 and Table 5 show the urinary excretion of quantified metabolites at the different fractions collected, i.e., 0-4 h (F1), 4-8 h (F2), 8-10 h (F3), and 10-24 h (F4), after extracts intake.

Occurrence Plasma LE (number of volunteers in whom metabolite was detected) ([1]; human, in vivo) | Occurrence Plasma LE (second column so headed; number of volunteers in whom metabolite was detected) ([1]; human, in vivo) | Occurrence Urine LE (number of volunteers in whom metabolite was detected) ([1]; human, in vivo) | Occurrence Urine LE (second column so headed; number of volunteers in whom metabolite was detected) ([1]; human, in vivo) | Metabolite quantified in urine fraction F1 ([2]; after consuming lemon extract) [μg/mg creatinine] | Metabolite quantified in urine fraction F2 ([2]; after consuming lemon extract) [μg/mg creatinine] | Metabolite quantified in urine fraction F3 ([2]; after consuming lemon extract) [μg/mg creatinine] | Metabolite quantified in urine fraction F4 ([2]; after consuming lemon extract) [μg/mg creatinine] | Metabolite quantified in urine, Total F (24 h) ([2]; after consuming lemon extract) [μg/mg creatinine] | Metabolite quantified in urine fraction F1 ([2]; after consuming orange extract) [μg/mg creatinine] | Metabolite quantified in urine fraction F2 ([2]; after consuming orange extract) [μg/mg creatinine] | Metabolite quantified in urine fraction F3 ([2]; after consuming orange extract) [μg/mg creatinine] | Metabolite quantified in urine fraction F4 ([2]; after consuming orange extract) [μg/mg creatinine] | Metabolite quantified in urine, Total F (24 h) ([2]; after consuming orange extract) [μg/mg creatinine] | Occurrence Plasma LE (number of volunteers in whom metabolite was detected) ([1]; plasma, after consuming lemon extract (LE), n = 16 volunteers) | Occurrence Plasma LE (second column so headed; number of volunteers in whom metabolite was detected) ([1]; plasma, fourth occurrence column, probably orange extract (OE), n = 16 volunteers) | Occurrence Urine LE (number of volunteers in whom metabolite was detected) ([1]; urine, after consuming lemon extract (LE), n = 16 volunteers) | Occurrence Urine LE (second column so headed; number of volunteers in whom metabolite was detected) ([1]; urine, third occurrence column, probably orange extract (OE), n = 16 volunteers) | Compound
15 | 1 | 12 | 1 |  |  |  |  |  |  |  |  |  |  |  |  |  |  | COc1cc([C@@H]2CC(=O)c3c(O)cc(O)cc3O2)ccc1O [M16, Homoeriodictyol]
16 | 0 | 14 | 4 |  |  |  |  |  |  |  |  |  |  |  |  |  |  | O=C1C[C@@H](c2ccc(O)c(O)c2)Oc2cc(O)cc(O)c21 [M12, Eriodictyol]
8 | 3 | 5 | 8 |  |  |  |  |  |  |  |  |  |  |  |  |  |  | COc1ccc([C@@H]2CC(=O)c3c(O)cc(O)cc3O2)cc1O [M17, Hesperetin]
16 | 16 | 16 | 16 | 1.2 ± 1.4 | 4.0 ± 4.7 | 2.7 ± 2.5 | 0.6 ± 0.6 | 8.5 ± 9.2 | 0.2 ± 0.6 | 2.1 ± 5.7 | 2.2 ± 3.6 | 1.1 ± 3.3 | 5.6 ± 13.2 |  |  |  |  | COc1ccc([C@@H]2CC(=O)c3c(O)cc(O[C@@H]4O[C@H](C(=O)O)[C@@H](O)[C@H](O)[C@H]4O)cc3O2)cc1O [M7, Hesperetin 7-O-glucuronide]
16 | 3 | 16 | 3 | 13.9 ± 16.2 | 48.1 ± 90.0 | 37.2 ± 56.9 | 6.8 ± 8.0 | 106 ± 171 |  |  |  |  |  |  |  |  |  | Homoeriodictyol glucuronide [M6]
16 | 10 | 16 | 12 | 4.6 ± 5.0 | 14.6 ± 17.3 | 11.9 ± 12.6 | 1.5 ± 1.5 | 32.6 ± 36.5 | 0.02 ± 0.01 | 0.1 ± 0.1 | 0.2 ± 0.4 | 0.3 ± 0.4 | 0.6 ± 0.9 |  |  |  |  | Eriodictyol sulfate [M13]
0 | 8 | 0 | 7 |  |  |  |  |  |  |  |  |  |  |  |  |  |  | Hesperetin sulfoglucuronide [M11]
16 | 3 | 16 | 0 | 3.8 ± 3.2 | 4.0 ± 5.5 | 3.6 ± 4.1 | 0.5 ± 0.4 | 9.6 ± 11.3 |  |  |  |  |  |  |  |  |  | Homoeriodictyol sulfate [M10]
16 | 16 | 16 | 16 | 2.1 ± 2.3 | 10.7 ± 11.3 | 9.2 ± 7.7 | 2.2 ± 2.4 | 24.2 ± 23.7 | 0.5 ± 1.5 | 4.3 ± 11.5 | 3.3 ± 4.2 | 1.8 ± 1.6 | 9.9 ± 18.9 |  |  |  |  | COc1ccc(C2CC(=O)c3c(O)cc(O)cc3O2)cc1O[C@@H]1O[C@H](C(=O)O)[C@@H](O)[C@H](O)[C@H]1O (stereo partly shown) [M8, Hesperetin 3'-O-glucuronide]
6 | 2 | 9 | 5 |  |  |  |  |  |  |  |  |  |  |  |  |  |  | O=C1C[C@@H](c2ccc(O)cc2)Oc2cc(O)cc(O)c21 [M15, Naringenin]
16 | 14 | 16 | 16 | 1.0 ± 0.7 | 2.6 ± 4.0 | 1.7 ± 1.9 | 0.3 ± 0.3 | 5.7 ± 6.9 | 0.1 ± 0.1 | 0.2 ± 0.6 | 0.2 ± 0.2 | 0.2 ± 0.3 | 0.7 ± 1.5 |  |  |  |  | O=C1C[C@@H](c2ccc(O)cc2)Oc2cc(O[C@@H]3O[C@H](C(=O)O)[C@@H](O)[C@H](O)[C@H]3O)cc(O)c21 [M3, Naringenin 7-O-glucuronide]
 |  |  |  | 0.8 ± 0.5 | 1.7 ± 2.7 | 1.3 ± 1.5 | 0.4 ± 0.3 | 4.2 ± 5.0 | 0.1 ± 0.1 | 0.3 ± 0.5 | 0.3 ± 0.4 | 0.3 ± 0.5 | 1.0 ± 1.5 | 16 | 14 | 16 | 16 | O=C1C[C@@H](c2ccc(O[C@@H]3O[C@H](C(=O)O)[C@@H](O)[C@H](O)[C@H]3O)cc2)Oc2cc(O)cc(O)c21 [M5, Naringenin 4'-O-glucuronide]
15 | 0 | 5 | 0 |  |  |  |  |  |  |  |  |  |  |  |  |  |  | Eriodictyol sulfoglucuronide [M9]
